From ChEMBL document CHEMBL1201862, “PubChem BioAssay data set” (2004)
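How tested: cells in 96-well plates exposed to compound for 48 hours at five concentrations. GI50 = concentration required for 50% inhibition of growth.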 The source made the active and inactive calls. Rule as the data show it: active = GI50 up to about 1.1 µM and inactive = higher.

How the values were obtained:
Assay in all cases: NCI anticancer screen, dose series, 48 h
786-0 = system: 786-0
A498 = system: A498
A549 = system: A549
ACHN = system: ACHN
BT-549 = system: BT-549
CAKI-1 = system: CAKI-1
CCRF-CEM = system: CCRF-CEM
COLO 205 = system: COLO 205
DU-145 = system: DU-145
EKVX = system: EKVX
HCC 2998 = system: HCC 2998
HCT-116 = system: HCT-116
HCT-15 = system: HCT-15
HL-60 = system: HL-60
HOP-62 = system: HOP-62
HOP-92 = system: HOP-92
HT-29 = system: HT-29
Hs-578T = system: Hs-578T
IGROV-1 = system: IGROV-1
K562 = system: K562
KM12 = system: KM12
LOX IMVI = system: LOX IMVI
M14 = system: M14
MCF7 = system: MCF7
MDA-MB-231 = system: MDA-MB-231
MDA-MB-435 = system: MDA-MB-435
MDA-N = system: MDA-N
MOLT-4 = system: MOLT-4
Malme-3M = system: Malme-3M
NCI-H226 = system: NCI-H226
NCI-H23 = system: NCI-H23
NCI-H460 = system: NCI-H460
NCI-H522 = system: NCI-H522
NCI/ADR-RES = system: NCI/ADR-RES
OVCAR-3 = system: OVCAR-3
OVCAR-4 = system: OVCAR-4
OVCAR-5 = system: OVCAR-5
OVCAR-8 = system: OVCAR-8
PC-3 = system: PC-3
RPMI-8226 = system: RPMI-8226
RXF 393 = system: RXF 393
SF-295 = system: SF-295
SF-539 = system: SF-539
SK-MEL-28 = system: SK-MEL-28
SK-MEL-2 = system: SK-MEL-2
SK-MEL-5 = system: SK-MEL-5
SK-OV-3 = system: SK-OV-3
SN12C = system: SN12C
SNB-19 = system: SNB-19
SNB-75 = system: SNB-75
SR = system: SR
SW-620 = system: SW-620
T47D = system: T47D
TK-10 = system: TK-10
U-251 = system: U-251
UACC-62 = system: UACC-62
UO-31 = system: UO-31
SF-268 = system: SF-268
UACC-257 = system: UACC-257

In the case of `CC1(C)Oc2ccc(NC(=O)CCC(N)C(=O)O)cc2O1` (stereo not drawn), the GI50 (786-0) is reported as > 100 µM (inactive), the GI50 (A498) is reported as > 100 µM (inactive) and the GI50 (A549) is reported as > 100 µM (inactive). The GI50 (ACHN) was > 100 µM (inactive), the GI50 (BT-549) was > 100 µM (inactive) and the GI50 (CAKI-1) was > 100 µM (inactive). For the same compound, the GI50 (CCRF-CEM) was > 100 µM (inactive), the GI50 (COLO 205) was > 100 µM (inactive) and the GI50 (DU-145) was > 100 µM (inactive). The GI50 (EKVX) was > 100 µM (inactive), the GI50 (HCC 2998) was > 100 µM (inactive) and the GI50 (HCT-116) was > 100 µM (inactive). For the same compound, the GI50 (HCT-15) was greater than 100 µM, the GI50 (HL-60) was > 100 µM (inactive) and the GI50 (HOP-62) was > 100 µM (inactive). For the same compound, the GI50 (HOP-92) was > 100 µM (inactive), the GI50 (HT-29) was > 100 µM (inactive) and the GI50 (Hs-578T) was > 100 µM (inactive). For the same compound, the GI50 (IGROV-1) was > 100 µM (inactive), the GI50 (K562) was > 100 µM (inactive) and the GI50 (KM12) was > 100 µM (inactive). For the same compound, the GI50 (LOX IMVI) was > 100 µM (inactive), the GI50 (M14) was > 100 µM (inactive) and the GI50 (MCF7) was > 100 µM (inactive). For the same compound, the GI50 (MDA-MB-231) was > 100 µM (inactive), the GI50 (MDA-MB-435) was > 100 µM (inactive) and the GI50 (MDA-N) was > 100 µM (inactive). The GI50 (MOLT-4) was > 100 µM (inactive), the GI50 (Malme-3M) was > 100 µM (inactive) and the GI50 (NCI-H226) was > 100 µM (inactive). The GI50 (NCI-H23) was > 100 µM (inactive), the GI50 (NCI-H460) was > 100 µM (inactive) and the GI50 (NCI-H522) was > 100 µM (inactive). The GI50 (NCI/ADR-RES) was > 100 µM (inactive), the GI50 (OVCAR-3) was > 100 µM (inactive) and the GI50 (OVCAR-4) was > 100 µM (inactive). The GI50 (OVCAR-5) was > 100 µM (inactive), the GI50 (OVCAR-8) was > 100 µM (inactive) and the GI50 (PC-3) was > 100 µM (inactive). For the same compound, the GI50 (RPMI-8226) was > 100 µM (inactive), the GI50 (RXF 393) was > 100 µM (inactive) and the GI50 (SF-295) was > 100 µM (inactive). For the same compound, the GI50 (SF-539) was > 100 µM (inactive), the GI50 (SK-MEL-28) was > 100 µM (inactive) and the GI50 (SK-MEL-2) was > 100 µM (inactive). For the same compound, the GI50 (SK-MEL-5) was > 100 µM (inactive), the GI50 (SK-OV-3) was > 100 µM (inactive) and the GI50 (SN12C) was > 100 µM (inactive). The GI50 (SNB-19) was > 100 µM (inactive), the GI50 (SNB-75) was > 100 µM (inactive) and the GI50 (SR) was > 100 µM (inactive). The GI50 (SW-620) was > 100 µM (inactive), the GI50 (T47D) was > 100 µM (inactive) and the GI50 (TK-10) was > 100 µM (inactive). The GI50 (U-251) was > 100 µM (inactive), the GI50 (UACC-62) was > 100 µM (inactive) and the GI50 (UO-31) was > 100 µM (inactive).
`CC(=O)OC/C=C/Cn1nc(Br)c(=O)[nH]c1=O` was tested, and the GI50 (786-0) was > 100 µM (inactive), the GI50 (A498) was > 100 µM (inactive) and the GI50 (A549) was > 100 µM (inactive). The GI50 (ACHN) was > 100 µM (inactive), the GI50 (BT-549) was > 100 µM (inactive) and the GI50 (CAKI-1) was > 100 µM (inactive). For the same compound, the GI50 (CCRF-CEM) was > 100 µM (inactive), the GI50 (COLO 205) was > 100 µM (inactive) and the GI50 (DU-145) was > 100 µM (inactive). For the same compound, the GI50 (EKVX) was > 100 µM (inactive), the GI50 (HCC 2998) was > 100 µM (inactive) and the GI50 (HCT-116) was > 100 µM (inactive). The GI50 (HCT-15) was greater than 100 µM, the GI50 (HL-60) was > 100 µM (inactive) and the GI50 (HOP-62) was > 100 µM (inactive). For the same compound, the GI50 (HOP-92) was > 100 µM (inactive), the GI50 (HT-29) was > 100 µM (inactive) and the GI50 (Hs-578T) was > 100 µM (inactive). The GI50 (IGROV-1) was > 100 µM (inactive), the GI50 (K562) was > 100 µM (inactive) and the GI50 (KM12) was > 100 µM (inactive). For the same compound, the GI50 (LOX IMVI) was > 100 µM (inactive), the GI50 (M14) was > 100 µM (inactive) and the GI50 (MCF7) was > 100 µM (inactive). For the same compound, the GI50 (MDA-MB-231) was > 100 µM (inactive), the GI50 (MDA-MB-435) was > 100 µM (inactive) and the GI50 (MDA-N) was > 100 µM (inactive). The GI50 (MOLT-4) was > 100 µM (inactive), the GI50 (Malme-3M) was > 100 µM (inactive) and the GI50 (NCI-H226) was > 100 µM (inactive). For the same compound, the GI50 (NCI-H23) was > 100 µM (inactive), the GI50 (NCI-H460) was > 100 µM (inactive) and the GI50 (NCI-H522) was > 100 µM (inactive). For the same compound, the GI50 (NCI/ADR-RES) was > 100 µM (inactive), the GI50 (OVCAR-3) was > 100 µM (inactive) and the GI50 (OVCAR-4) was > 100 µM (inactive). For the same compound, the GI50 (OVCAR-5) was > 100 µM (inactive), the GI50 (OVCAR-8) was > 100 µM (inactive) and the GI50 (PC-3) was > 100 µM (inactive). The GI50 (RPMI-8226) was > 100 µM (inactive), the GI50 (RXF 393) was > 100 µM (inactive) and the GI50 (SF-268) was > 100 µM (inactive). For the same compound, the GI50 (SF-295) was > 100 µM (inactive), the GI50 (SF-539) was > 100 µM (inactive) and the GI50 (SK-MEL-28) was > 100 µM (inactive). For the same compound, the GI50 (SK-MEL-2) was > 100 µM (inactive), the GI50 (SK-MEL-5) was > 100 µM (inactive) and the GI50 (SN12C) was > 100 µM (inactive). For the same compound, the GI50 (SNB-19) was > 100 µM (inactive), the GI50 (SNB-75) was > 100 µM (inactive) and the GI50 (SR) was > 100 µM (inactive). For the same compound, the GI50 (SW-620) was > 100 µM (inactive), the GI50 (T47D) was > 100 µM (inactive) and the GI50 (TK-10) was > 100 µM (inactive). For the same compound, the GI50 (U-251) was > 100 µM (inactive), the GI50 (UACC-257) was > 100 µM (inactive) and the GI50 (UACC-62) was > 100 µM (inactive). For the same compound, the GI50 (UO-31) was > 100 µM (inactive).
With `N/N=C(/CC(O)(C(F)(F)F)C(F)(F)F)c1ccccc1` the GI50 (786-0) was > 10 µM (inactive), the GI50 (A498) was > 10 µM (inactive) and the GI50 (A549) was > 10 µM (inactive). The GI50 (ACHN) was > 10 µM (inactive), the GI50 (BT-549) was > 10 µM (inactive) and the GI50 (CAKI-1) was > 10 µM (inactive). For the same compound, the GI50 (CCRF-CEM) was > 10 µM (inactive), the GI50 (COLO 205) was > 10 µM (inactive) and the GI50 (DU-145) was > 10 µM (inactive). For the same compound, the GI50 (EKVX) was > 10 µM (inactive), the GI50 (HCC 2998) was > 10 µM (inactive) and the GI50 (HCT-116) was > 10 µM (inactive). The GI50 (HCT-15) was greater than 10 µM, the GI50 (HL-60) was > 10 µM (inactive) and the GI50 (HOP-62) was > 10 µM (inactive). For the same compound, the GI50 (HOP-92) was > 10 µM (inactive), the GI50 (HT-29) was > 10 µM (inactive) and the GI50 (Hs-578T) was > 10 µM (inactive). For the same compound, the GI50 (IGROV-1) was > 10 µM (inactive), the GI50 (K562) was > 10 µM (inactive) and the GI50 (KM12) was > 10 µM (inactive). For the same compound, the GI50 (LOX IMVI) was > 10 µM (inactive), the GI50 (M14) was > 10 µM (inactive) and the GI50 (MCF7) was > 10 µM (inactive). For the same compound, the GI50 (MDA-MB-231) was > 10 µM (inactive), the GI50 (MDA-MB-435) was > 10 µM (inactive) and the GI50 (MDA-N) was > 10 µM (inactive). The GI50 (MOLT-4) was > 10 µM (inactive), the GI50 (Malme-3M) was > 10 µM (inactive) and the GI50 (NCI-H226) was > 10 µM (inactive). The GI50 (NCI-H23) was > 10 µM (inactive), the GI50 (NCI-H460) was > 10 µM (inactive) and the GI50 (NCI-H522) was > 10 µM (inactive). The GI50 (NCI/ADR-RES) was > 10 µM (inactive), the GI50 (OVCAR-3) was 7.4 µM (inactive) and the GI50 (OVCAR-4) was > 10 µM (inactive). For the same compound, the GI50 (OVCAR-5) was > 10 µM (inactive), the GI50 (OVCAR-8) was > 10 µM (inactive) and the GI50 (PC-3) was > 10 µM (inactive). The GI50 (RPMI-8226) was > 10 µM (inactive), the GI50 (RXF 393) was > 10 µM (inactive) and the GI50 (SF-268) was > 10 µM (inactive). The GI50 (SF-295) was > 10 µM (inactive), the GI50 (SF-539) was > 10 µM (inactive) and the GI50 (SK-MEL-28) was > 10 µM (inactive). The GI50 (SK-MEL-2) was > 10 µM (inactive), the GI50 (SK-MEL-5) was > 10 µM (inactive) and the GI50 (SK-OV-3) was > 10 µM (inactive). For the same compound, the GI50 (SN12C) was > 10 µM (inactive), the GI50 (SNB-19) was > 10 µM (inactive) and the GI50 (SNB-75) was > 10 µM (inactive). The GI50 (SR) was > 10 µM (inactive), the GI50 (SW-620) was > 10 µM (inactive) and the GI50 (T47D) was > 10 µM (inactive). For the same compound, the GI50 (TK-10) was > 10 µM (inactive), the GI50 (U-251) was > 10 µM (inactive) and the GI50 (UACC-257) was > 10 µM (inactive). For the same compound, the GI50 (UACC-62) was > 10 µM (inactive).
